Holding throughout (type): cell-based
Experiment [1] relates to adult rat hippocampal neurons on MEAs. The experiment can be described thus: MEA recording of spontaneous activity, adult hippocampal neurons. Conditions: 25 μM antagonist, adult cultures. The protocol:
Adult neurons were extracted, dissociated, cultured, and maintained. Briefly, the hippocampi of adult rats (Charles River, age 6-12 months) were dissected and homogenized into small tissue fragments in cold medium (˜4° C.) consisting of Hibernate-A, glutamax, and antibiotic-antimycotic. The tissue was digested for 30 minutes at 37° C. in calcium-free Hibernate-A (HA) containing 6 mg papain/12 ml (HA no calcium). Following digestion, the tissue was washed three times with cold HA media to remove any active enzyme. Next, the tissue was suspended in Dissociation Medium and broken apart into individual cells through mechanical dissociation with fire-polished Pasteur pipettes. The dissociated cells were suspended in Plating medium and then deposited onto DETA (N-1 [3-(trimethoxysilyl) propyl]-diethylenetriamine, United Chemical Technologies Inc., Bristol, Pa., T2910KG) coated glass cover slips. After 30-45 minutes, the cover slips were washed with warm HA by gently swirling the medium to remove tissue debris. Following this washing step, fresh Plating medium was applied and remained for the first 3 div. On 3 div the medium was removed and replaced by Maintenance Medium with 5 μM Roscovitine (Rosc, Sigma, R7772). All research was approved by the Institutional Animal Care and Use Committee at the University of Central Florida and conformed to NIH guidelines. After 4 div, the adult hippocampal neurons on the DETA cover slips were passaged to MEAs. Briefly, neurons were dislodged from the DETA with trypsin (0.05% trypsin/EDTA in HBSS, Gibco, 25200). Trypsin inhibitor (trypsin inhibitor, soybean, Gibco, 17075-029) in Dissociation medium at 0.5 mg per ml deactivated the trypsin. The dislodged neurons were collected and spun at 500×g for 5 minutes. The supernatant of deactivated trypsin in HBSS was discarded, and the neuronal cell pellet was suspended in 1 ml Plating medium. Immunocytochemistry and Laser Scanning Confocal Microscopy
(§1) The MEA chips (Axion Biosystems) provided 64 platinum-black coated gold-electrodes with a diameter of 30 μm, organized in an 8 by 8 array with 200 μm pitch. Clean MEAs were sterilized with 70% alcohol and then incubated with 1 ml poly-L-lysine (100 μg/ml) for 30 minutes. An area just large enough to cover all electrodes was additionally coated with 3 μl laminin (2 μg/ml) over night. Embryonic rat hippocampal neurons were plated directly on MEAs at a density of 500 cells/mm2. Adult rat hippocampal neurons were first cultured on DETA coated cover slips for recovery. […] After 4 days on DETA cover slips, the adult neurons were passaged onto MEAs at a density of 500 cells/mm2. Every 2-3 days, half the medium was replaced with fresh Maintenance medium supplemented with 2 μM Rosc.
(§2) MEAs were incubated with their covers off to allow gas exchange but covered upon removal from the incubator to reduce contamination, media evaporation, and gas exchange while recordings were taken. The head stage of the recording system (Axion Biosystems) was pre-heated to 37° C. before MEAs with adult or embryonic hippocampal cultures were investigated. The activity of neuronal networks was recorded with 25 kHz using the software Axion's Integrated Studio (AxIS). Signal amplitudes 6 times larger than the standard deviation of the base line were detected as action-potential spikes. The spike data was then imported into Matlab 2010b (The MathWorks) for further processing.
Baseline spontaneous activity in adult and embryonic neurons was recorded for 3 minutes on 5 consecutive days per week, starting on 7 div. The synaptic antagonists D-(−)-2-Amino-5-phosphonopentanoic acid (D-APS, 25 μM, Tocris Bioscience, 0106), 6-Cyano-7-nitroquinoxaline-2,3-dione disodium (CNQX, 25 μM, Tocris Bioscience, 1045), and (−)-Bicuculline methobromide (Bicuculline, 50 μM, Tocris Bioscience, 0109) were separately administered to both adult and embryonic neurons on 14 div and at various time points between 30 and 60 div. […]

Experiment [2] has as its system embryonic rat hippocampal neurons on MEAs. The experiment can be described thus: MEA recording of spontaneous activity, embryonic hippocampal neurons. The settings on record: 25 μM antagonist, embryonic cultures. The protocol:
Embryonic hippocampal neurons were cultured. Pregnant rats, 18 days in gestation, obtained from Charles River were euthanized with carbon dioxide and the fetuses were collected in ice-cold Hibernate E (BrainBits)/B27/Glutamaxtm/Antibiotic-antimycotic (Invitrogen) (Dissecting Medium). Each fetus was decapitated, and the whole brain was transferred to fresh ice cold dissecting medium. After isolation, the hippocampi were collected in a fresh tube of dissecting medium. The tissue was enzymatically digested at 37° C. for 10 minutes with papain (Worthington 3119), 12 mg/6 ml Hibernate-E (-calcium) (BrainBits)+0.5 mM Glutamax (Invitrogen). Hippocampal neurons were obtained by triturating the tissue using a fire-polished Pasteur pipette. After centrifugation, the cells were re-suspended in culture medium (Neurobasal/B27/Glutamaxtm/antibiotic-antimycotic) and plated on MEAs. All research was approved by the Institutional Animal Care and Use Committee at the University of Central Florida and conformed to NIH guidelines.
as §1, §2
Baseline spontaneous activity in adult and embryonic neurons was recorded for 3 minutes on 5 consecutive days per week, starting on 7 div. The synaptic antagonists D-(−)-2-Amino-5-phosphonopentanoic acid (D-APS, 25 μM, Tocris Bioscience, 0106), 6-Cyano-7-nitroquinoxaline-2,3-dione disodium (CNQX, 25 μM, Tocris Bioscience, 1045), and (−)-Bicuculline methobromide (Bicuculline, 50 μM, Tocris Bioscience, 0109) were separately administered to both adult and embryonic neurons on 14 div and at various time points between 30 and 60 div. Three minute recordings were made to quantify the effect from these antagonists on spontaneous activity. If necessary, additional baselines were recorded prior to the administration of antagonists. Each experiment was followed by a complete washout of the antagonist and replacement with fresh medium.
Data analysis was performed off-line using unpublished Matlab functions to evaluate spike files created during each MEA recording. […] In about 25% of the adult cultures and 14% of the embryonic cultures, portions of the neuronal networks detached from the substrate over time and especially after about 6 weeks. In order to accommodate the different numbers of active channels between MEAs, all values were corrected for the amount of active channels on an MEA. […]

In experiment [3] the test system is adult rat hippocampal neurons. Nature of the experiment: Whole-cell patch-clamp electrophysiology of cultured adult hippocampal neurons (electrical recovery). Conditions: cycloheximide during incubation of confluent neurons with 25 μM glutamate.
Method: Whole-cell, patch-clamp recordings were performed at room temperature. pH was adjusted to 7.3 with HEPES acid and base, ion concentrations with NaCl to approximately 130 mM, and osmolarity of 290-300 mOsm. Cells were visualized on the stage with a Zeiss Axioscope, 2 FS Plus, upright microscope in maintenance culture medium. Patch pipettes (4-8 M′Ω) were filled with intracellular solution (K-gluconate 140 mM, EGTA 1 mM, MgCl2 2 mM, Na2ATP 5 mM, HEPES 10 mM; pH 7.2), osmolarity approximately 260 mOsm. Voltage clamp and current clamp experiments were performed with a Multiclamp 700A (MDS Analytical Devices) amplifier. Signals were filtered at 3 kHz and digitized at 20 kHz with an Axon Digidata 1322A interface. Data recordings and analysis were performed with pClamp software. Whole-cell capacitance and series resistance were compensated electronically. Only cells with access resistance less than 22 M′Ω were analyzed. Inward currents that had the characteristics of fast sodium currents, and outward currents that had the characteristics of potassium currents were measured in voltage clamp mode using voltage steps of 10 mV from a −70 mV holding potential. Action potentials were measured with 1 s depolarizing current injections to elicit action potentials from a −70 mV holding potential. Cells were morphologically selected for electrophysiological characterization. […]

`N[C@H](CCCP(=O)(O)O)C(=O)O` [D-AP5, D-(−)-2-Amino-5-phosphonopentanoic acid]: in experiment [1] (14 div), the “loss of channel activity (active channels) versus baseline” value (“loss … (active channels) versus baseline” for short) worked out at 90±6% and the “lowering of action potential frequency versus baseline” value was found to be 76±8%. Moreover, in experiment [1] (30-60 div), the “loss … (active channels) versus baseline” value is 82±6% and the “lowering (drop) of action potential frequency versus baseline” value amounted to 82±17%. Also, in experiment [2] (14 div), the “increase of firing rate versus baseline” value worked out at 90±6% and the “loss … (active channels) versus baseline” value is given as 65±4%. Also, in experiment [2] (30-60 div), the “decrease (drop) of firing rate versus baseline” value came to 70±7% and the “loss … (active channels) versus baseline” value stood at 36±7%.
In the case of `C[C@@H]1C[C@@H]([C@H](O)CC2CC(=O)NC(=O)C2)C(=O)[C@@H](C)C1` [cycloheximide], the “glutamate-induced improvements in neuronal electrical activity” value in experiment [3] is on record as “completely blocked”.

Source of the values: patent US20140206028A1, “Stable Electrically Active Neurons from Adult Tissue” (University of Central Florida Research Foundation, Inc., priority 2011, published 2014).
